Test results reported in patent publication US8673306B2, “Compositions and methods of use for antibodies of dickkopf-1” (Novartis AG, priority 2006, dated 2014).
“Also recorded” adds a separate entry of the source.

Columns and labels:
[1] = test system: N-linked deglycosylated rhDKK1; assay: ELISA binding to N-linked deglycosylated rhDKK1; parameters: species or system human; conditions: PNGase F treated rhDKK1, relative to WT
[2] = molecular target: T1, rhDKK1 (recombinant human DKK1) (Homo sapiens, UniProt O94907); assay: Biacore T100 SPR of captured antibody with rhDKK1; type: binding; conditions: WT DKK1
T1 construct: host or cells: HEK / HEK293
T1 sequence (O94907 32-266): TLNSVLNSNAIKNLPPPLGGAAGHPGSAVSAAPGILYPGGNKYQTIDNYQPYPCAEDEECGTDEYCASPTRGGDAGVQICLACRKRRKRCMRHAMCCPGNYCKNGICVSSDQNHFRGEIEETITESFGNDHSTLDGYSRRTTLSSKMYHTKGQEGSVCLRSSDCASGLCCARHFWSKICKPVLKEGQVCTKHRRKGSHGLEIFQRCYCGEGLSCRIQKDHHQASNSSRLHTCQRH
Method: FIG. 6. METHODS: The binding affinity and kinetics of lead candidates and rhDKK1 (recombinant human DKK1) (Batch BTP7757) are measured using surface plasmon resonance with a Biacore T100 (Biacore, Uppsala, Sweden) instrument containing a CM5 (S) sensor chip (Cat#BR-1006-68). Anti-Human IgG1 Fc (Jackson Immuno Research, Cat#109-006-098) is immobilized onto each flow cell, followed by capture of a lead candidate at an expected capture of about 100 RU. Finally, six concentrations of DKK1 (range 0.195-6.25 nM), with one repeat concentration, is run over the chip. Flow cells are activated for binding of DKK1 for 240 seconds, and disassociation is followed for 30 minutes. The normalized data (background subtracted) are fit to a 1:1 binding with mass transport model using Kinetics analysis in BIA evaluation 1.0 software. This experiment is carried out in triplicate, and data presented are the average of these three experiments with standard deviation.

DKK1 (N-degly) = assay: Biacore T100 SPR with N-DEGLY DKK1; type: binding, human
DKK3 = DKK3 (Homo sapiens, UniProt Q9UBP4); assay: Biacore T100 binding to human DKK3
DKK3, sequence (Q9UBP4 22-350): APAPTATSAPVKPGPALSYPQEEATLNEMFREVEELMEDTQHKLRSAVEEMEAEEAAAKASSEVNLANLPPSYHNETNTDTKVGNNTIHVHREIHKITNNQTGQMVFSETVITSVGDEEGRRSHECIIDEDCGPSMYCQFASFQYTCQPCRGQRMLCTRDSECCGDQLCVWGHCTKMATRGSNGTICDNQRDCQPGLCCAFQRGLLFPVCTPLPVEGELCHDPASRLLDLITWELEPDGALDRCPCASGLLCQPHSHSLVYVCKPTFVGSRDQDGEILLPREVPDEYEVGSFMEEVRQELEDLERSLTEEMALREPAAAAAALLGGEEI

DKK2 = molecular target: T2, DKK2 (Homo sapiens, UniProt Q9UBU2); assay: Binding to human DKK2 (preliminary immunoprecipitation)
T2 sequence (Q9UBU2 34-259): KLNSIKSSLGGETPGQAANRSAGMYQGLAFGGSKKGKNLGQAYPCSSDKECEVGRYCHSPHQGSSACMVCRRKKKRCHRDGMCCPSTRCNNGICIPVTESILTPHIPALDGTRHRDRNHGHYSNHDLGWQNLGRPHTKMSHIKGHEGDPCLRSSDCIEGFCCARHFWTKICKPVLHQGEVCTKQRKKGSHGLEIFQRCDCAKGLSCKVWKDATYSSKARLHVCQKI
Text: Of note, neither DKK2 nor DKK4 conserve the Asparagine residue that is predicted to be targeted for glycosylation in the Cys-2 domain of DKK1.

[3] = molecular target: T3, DKK1/LRP6 binding on cell surface (Homo sapiens, UniProt O94907); assay: DKK1-GFP binding to LRP6 on HEK293T cell surface, fluorescence microscopy; type: cell-based; conditions: HEK293T transfected with LRP6 and MESD
T3 construct: made in house; LRP6 and MESD transiently transfected into HEK293T
T3 sequence (O94907 32-266): T1 sequence (O94907 32-266)
Method: However, upon co-transfection of LRP6 with a surface trafficking chaperone protein, MESD, GFP-tagged DKK1 can be detected on the cell surface, illustrating the specific nature of the DKK1/LRP6 interaction.
The ability of MOR04910 to inhibit DKK1/LRP6 binding on cell surface is measured by fluorescence microscopy. HEK293T cells are either mock transfected and transiently transfected with plasmids encoding LRP6 and MESD. Cells are incubated with DKK1-GFP conditioned medium together with anti-lysozyme FAb or anti-DKK1 FAb MOR04910 for 1 hour at 37° C., and examined by fluorescence microscopy. GFP fluorescence reflects DKK1-GFP binding to overexpressed LRP6 on the plasma membrane.

C3H10T1/2 (10T1/2) cells = assay: Wnt-mediated osteoblast differentiation / alkaline phosphatase secretion of C3H10T1/2 cells; type: cell-based, mouse; conditions: Wnt3A conditioned medium
Text: Upon osteoblast differentiation the 10T1/2 cells secrete alkaline phosphatase (AP), a phenomena which can be inhibited by DKK1.

tumor cell lines = assay: Survival and proliferation of cancer cell lines (Cell Titer Glo); type: cell-based; conditions: 100 μg/ml, three days, three serum concentrations
Method: This assay is carried out in three different serum concentrations (serum free, minimal growth, and complete growth). […] Cell line supernants are analyzed for DKK1 expression by ELISA.

PC3M2AC6 xenografts = assay: Intratibial growth of PC3M2AC6 xenografts in mice; type: in vivo, mouse; conditions: i.v., 3 times a week for 2 weeks
Method: An osteolytic prostate tumor model is adapted from a method by [Kim 2003]. A variant of the osteolytic prostate tumor cell line (PC3M) that stably expresses luciferase (PC3M2AC6) is injected into the tibia of mice. The growth of the tumor is monitored by luciferase while changes in bone are monitored by micro-computerized tomography (micro-CT) and histology.
Control IgG is administered i.v., at 200 μg/mouse/day, q.d., 3 times a week for 2 weeks. Vehicle control (PBS) is administered i.v., q.d., 3 times a week for 2 weeks. Final efficacy data and body weight change are calculated after treatment.

[4] = test system: subcutaneous PC3M2AC6 xenografts; assay: Subcutaneous PC3M2AC6 xenografts in mice; conditions: mouse, in vivo, sc
[5] = test system: tumor and sham implanted tibias; assay: Bone effects in tumor-induced osteolytic model (micro-CT, histology); type: in vivo, mouse
Method: An osteolytic prostate tumor model is adapted from a method by [Kim 2003]. A variant of the osteolytic prostate tumor cell line (PC3M) that stably expresses luciferase (PC3M2AC6) is injected into the tibia of mice. The growth of the tumor is monitored by luciferase while changes in bone are monitored by micro-computerized tomography (micro-CT) and histology. […] Cortical damage is scored from 0=no damage to 3=severe damage. FIG. 12B. Cortical damage in tumor-implanted tibias is manually scored by microCT analysis that are blinded with respect to the study groups. No cortical damage is observed in any of the sham implanted legs. Methods: Female nude mice at age of 12 weeks old are implanted intatibially with 2×10^5 PC-3M2AC6 cells in the left tibia and sham-injection in the right tibia. Treatments started on day 5 post implantation. […] Vehicle (PBS) control is also administered q.d., 3 times a week for 2 weeks. Animals are scanned at day 7, 14, and 18 post tumor implantation using the μ-CT VivaCT40 Scanner (SCANCO, Switzerland). Trabecular bone density (BV/TV) is analyzed as described in methods. An asterisks (*) indicates statistical significant difference from both vehicle and IgG controls (n=12) at the same time point at p<0.05. In FIG. 13, to determine the bone mass, the secondary spongiosa of the tibia is imaged with the Zeiss Imager Z.1 and Axiovision software based on Giemsa stain. The readout is based on the percent calcified bone in the entire field. Every column represents the mean and standard deviation of the stated number of animals. In the PBS, IgG, and anti-DKK1/4 antibody treated groups, only animals with tumor are analyzed. […] Statistic: Dunnett Multiple Comparisons Test One-Way ANOVA. Left legs or right legs compared to the respective leg in the PBS group p<0.05*, p<0.01**, p>0.05 n.s. […] Trabecular bone density (BV/TV) is analyzed as described in methods. * indicates statistical significant difference from all controls including, vehicle, IgG, drill only, and naïve animals at the same time point at p<0.05.

Substance: anti-DKK1/4 antibody: neutralizing anti-DKK1/4 antibody sharing the same variable regions as MOR04910 (4910 chains SEQ ID NO: 111/115, BHQ880)
- Percent Binding, DKK1 (dyglycosylated) [1]: 12-18%
- Ka [2]: 7.449e+06 M⁻¹ s⁻¹
- Kd [2]: 2.319e-05 s⁻¹
- Ka (DKK1 (N-degly)): 1.424e+06 M⁻¹ s⁻¹
- Kd (DKK1 (N-degly)): 0.0003071 s⁻¹
- binding to DKK3 (DKK3): does not bind DKK3
- binding to DKK2 (DKK2): does not specifically bind DKK2; also recorded: no significant binding to DKK2
- inhibition of DKK1/LRP6 binding on cell surface [3]: blocks DKK1 interactions with LRP6 on cell surfaces
- reversal of DKK1 inhibited alkaline phosphatase secretion (C3H10T1/2 (10T1/2) cells): blocks DKK1 suppression of 10T1/2 differentiation
- effect on survival and proliferation of cancer cell lines (tumor cell lines): No significant changes
- effect on intratibial tumor growth (PC3M2AC6 xenografts): trended toward inhibition of tumor growth
- effect on subcutaneous xenograft growth [4]: non-significant trend toward inhibition
- anti-osteolytic activity compared with Zometa ([5]; mouse, in vivo): equivalent anti-osteolytic activity as Zometa
- tumor-induced cortical bone damage ([5]; mouse, in vivo): inhibits tumor-induced cortical bone damage
- production of bone / bone volume ([5]; tumor and sham implanted tibias): increases the production of bone in both tumor and sham implanted tibias
